Read-outs that look alike come from different tables or passages of the source.
What was measured:
[1] = biological target: T1, c-Met (baculovirus expressed human c-Met kinase domain P948-S1343) (Homo sapiens, UniProt P08581); assay: c-Met Luciferase-Coupled Chemiluminescent Kinase assay (LCCA); type: biochemical;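 further: kinase activity read as percent ATP left after reaction, by luciferase-luciferin chemiluminescence, with 1 µM ATP and 1 µM poly-EY substrate, 2 h at ambient temperature, 10-point dose-response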
T1 construct: human c-Met kinase domain P948-S1343; host or cells: baculovirus expression
T1 sequence (P08581 1011-1343 limits assumed): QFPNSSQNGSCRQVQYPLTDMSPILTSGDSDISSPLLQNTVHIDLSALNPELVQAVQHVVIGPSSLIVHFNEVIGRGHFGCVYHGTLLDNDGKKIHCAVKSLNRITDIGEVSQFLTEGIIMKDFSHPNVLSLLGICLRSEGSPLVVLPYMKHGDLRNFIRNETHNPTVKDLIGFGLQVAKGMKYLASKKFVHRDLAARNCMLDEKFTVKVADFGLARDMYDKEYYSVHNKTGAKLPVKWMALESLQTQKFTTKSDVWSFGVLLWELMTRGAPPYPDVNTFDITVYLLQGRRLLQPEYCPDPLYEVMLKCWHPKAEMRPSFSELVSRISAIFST

[2] = biological target: T2, KDR (baculovirus expressed human KDR kinase domain D807-V1356) (Homo sapiens, UniProt P35968); assay: biochemical;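 further: Luciferase-coupled chemiluminescent kinase assay, activity read as percent ATP left after 4 h reaction at ambient temperature, ATP near KM, 10-point dose-response in 384-well plates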
T2 construct: human KDR kinase domain D807-V1356; host or cells: baculovirus expression
T2 sequence (P35968 807-1356): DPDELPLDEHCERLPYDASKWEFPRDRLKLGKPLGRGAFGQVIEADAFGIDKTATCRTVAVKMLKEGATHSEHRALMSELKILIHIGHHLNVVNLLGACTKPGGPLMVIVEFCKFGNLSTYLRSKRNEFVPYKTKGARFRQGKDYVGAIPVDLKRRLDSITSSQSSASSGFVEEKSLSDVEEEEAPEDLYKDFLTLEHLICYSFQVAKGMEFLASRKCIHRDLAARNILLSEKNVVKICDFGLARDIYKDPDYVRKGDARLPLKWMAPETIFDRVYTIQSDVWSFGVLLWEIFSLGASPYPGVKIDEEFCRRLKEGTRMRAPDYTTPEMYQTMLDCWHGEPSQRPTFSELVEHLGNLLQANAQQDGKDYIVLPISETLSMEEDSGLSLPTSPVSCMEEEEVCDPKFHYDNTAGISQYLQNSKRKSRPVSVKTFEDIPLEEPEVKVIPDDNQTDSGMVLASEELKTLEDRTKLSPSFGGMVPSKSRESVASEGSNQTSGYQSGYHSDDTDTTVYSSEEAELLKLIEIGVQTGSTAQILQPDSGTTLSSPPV

[3] = Table 4, inhibition as IC50 class

| Structure (SMILES) | IC50 [1] | IC50 [2] | IC50 [1, 3] | IC50 [2, 3] |
| --- | --- | --- | --- | --- |
| COc1cc2nccc(Oc3ccc(N4CCN(Cc5ccccc5)CC4)cc3)c2cc1OC [Example 115, 6,7-bis(methyloxy)-4-({4-[4-(phenylmethyl)piperazin-1-yl]phenyl}oxy)quinoline] | 0.5 to 5 µM | 0.5 to 5 µM |  |  |
| COc1cc2nccc(Oc3ccc(N4CCN(Cc5ccccc5)CC4=O)cc3)c2cc1OC [Example 116, 1-(4-{[6,7-bis(methyloxy)quinolin-4-yl]oxy}phenyl)-4-(phenylmethyl)piperazin-2-one] | 0.5 to 5 µM | 0.5 to 5 µM |  |  |
| COc1cc2nccc(Oc3ccc(NC(=O)C(C)NCc4ccccc4)cc3)c2cc1OC (centres unmarked) [Example 117, N1-(4-{[6,7-bis(methyloxy)quinolin-4-yl]oxy}phenyl)-N2-(phenylmethy)alaninamide] | 0.5 to 5 µM | 0.5 to 5 µM |  |  |
| COc1cc2nccc(Oc3ccc(NC(=O)C(C)N(C)Cc4ccccc4)cc3)c2cc1OC (centres unmarked) [Example 118, N1-(4-{[6,7-bis(methyloxy)quinolin-4-yl]oxy}phenyl)-N2-methyl-N2-(phenylmethyl) alaninamide] | 0.5 to 5 µM | 0.5 to 5 µM |  |  |
| COc1cc2nccc(Oc3ccc(NC(=O)[C@H](CC(C)C)NCc4ccccc4)cc3)c2cc1OC [Example 119, N1-(4-{[6,7-bis(methyloxy)quinolin-4-yl]oxy}phenyl)-N2-(phenylmethyl)leucinamide] | 0.5 to 5 µM | 0.5 to 5 µM |  |  |
| COc1cc2nccc(Oc3ccc(NC(=O)C(CC(C)C)N(C)Cc4ccccc4)cc3)c2cc1OC (centres unmarked) [Example 120, N1-(4-{[6,7-bis(methyloxy)quinolin-4-yl]oxy}phenyl)-N2-methyl-N2-(phenylmethyl) leucinamide] | 0.5 to 5 µM | 0.5 to 5 µM |  |  |
| COc1cc2nccc(Oc3ccc(NC(=O)[C@@H](NCc4ccccc4)C(C)C)cc3)c2cc1OC [Example 121, N1-(4-{[6,7-bis(methyloxy)quinolin-4-yl]oxy}phenyl)-N2-(phenylmethyl)valinamide] | 0.5 to 5 µM | 0.5 to 5 µM |  |  |
| COc1cc2c(Oc3ccc(NC(=O)C(=O)NCCc4ccccc4)cc3F)ccnc2cc1OCC1CNC1 [Example 249, N-(4-{[7-[(azetidin-3-ylmethyl)oxy]-6-(methyloxy)quinolin-4-yl]oxy}-3-fluorophenyl)-N′-(2-phenylethyl)ethanediamide] |  |  | < 0.05 µM | < 0.05 µM |
| COc1cc2nccc(Oc3ncc(NC(=O)CC(=O)Nc4ccc(F)cc4F)cc3Cl)c2cc1OC [Example 252, N-(6-{[6,7-bis(methyloxy)quinolin-4-yl]oxy}-5-chloropyridin-3-yl)-N′-(2,4-difluorophenyl)propanediamide] |  |  | < 0.05 µM | 0.5 to 5 µM |
| COc1cc2nccc(Oc3ncc(NC(=O)CC(=O)N(C)c4ccc(F)cc4)cc3Cl)c2cc1OC [Example 253, N′-(6-{[6,7-bis(methyloxy)quinolin-4-yl]oxy}-5-chloropyridin-3-yl)-N-(4-fluorophenyl)-N-methylpropanediamide] |  |  | 0.05 to 0.5 µM | 0.5 to 5 µM |
| COc1cc2c(Oc3ccc(NC(=O)C(=O)NCc4ccc(Cl)cc4)cc3F)ccnc2cc1OCC1CCNCC1 [Example 268, N-[(4-chlorophenyl)methyl]-N′-[3-fluoro-4-({6-(methyloxy)-7-[(piperidin-4-ylmethyl)oxy]quinolin-4-yl}oxy)phenyl]ethanediamide] |  |  | < 0.05 µM | < 0.05 µM |
| COc1cc2nccc(Oc3ncc(NC(=O)CC(=O)Nc4cccc(F)c4)cc3Cl)c2cc1OC [Example 290, N-(6-{[6,7-bis(methyloxy)quinolin-4-yl]oxy}-5-chloropyridin-3-yl)-N′-(3-fluorophenyl)propanediamide] | 0.05 to 0.5 µM | 0.5 to 5 µM |  |  |
| COc1cc2nccc(Oc3ncc(NC(=O)C4(C(=O)NCCc5ccccc5)CC4)cc3Cl)c2cc1OC [Example 302, N-(6-{[6,7-bis(methyloxy)quinolin-4-yl]oxy}-5-chloropyridin-3-yl)-N′-(2-phenylethyl)cyclopropane-1,1-dicarboxamide] | 0.5 to 5 µM | 0.5 to 5 µM |  |  |

Reference: patent publication US8476298B2 (Exelixis, Inc., priority 2003, dated 2013)
